“Also recorded” adds a separate entry of the source.
Assays:
Type in all cases: cell-based, human
CD11c^−CD123^+ DCs = conditions: CD11c−CD123+ subset; whole blood
Protocol: (§1) Venous blood of normal donors was collected in sodium heparin […]® tubes. For activation with LPS, the blood was stimulated with 1 μg/mL LPS. […] PMA was then added at 5 ng/mL and ionomycin at 1 μg/mL. For activation by CD40 crosslinking, 50 μL CD40-coated polystyrene beads was added to 1 mL whole blood. All samples were incubated for four hours at 37° C. in a humidified incubator with 5% CO2.
(§2) For detection of intracellular cytokines, activation, as above, was performed in the presence additionally of Brefeldin A (BFA) at 10 μg/mL. Control (resting) aliquots were incubated with BFA alone.
(§3) Cell preparation was done at room temperature (RT), and all incubation steps were performed in the dark.
(§4) For staining, 1 mL of sample (activated or resting blood control) was added to a cocktail of dendritic cell-distinguishing antibodies (20 μL lineage cocktail 1-FITC, 10 μL HLA-DR PerCP, 5 μL CD11c APC; reagent volumes per 50 μL blood) in a 50 mL polypropylene centrifuge tube. The blood was incubated in the presence of the fluorophore-conjugated antibodies for 15 min. After incubation, 40 mL FACS® Lysing Solution was added and the tube incubated for a further 10 min. The cells were then collected by centrifugation for 10 min at 500×g, and the pellet gently broken off for further processing. Next, 10 mL FACS® Permeabilizing Solution was added and the cells were incubated for 10 min. […]

CD11c^+CD123^low DCs = conditions: CD11c+ subset; whole blood; activator 4 hours at 37° C. with Brefeldin A
Protocol: as §1, §2, §3, §4

CD11c^− DCs = conditions: CD11c− subset; whole blood; activator 4 hours at 37° C. without Brefeldin A
Protocol: as §1
For detection of changes in surface antigen expression, samples were incubated with DC activator, as above, without the further addition of BFA. Control (resting) aliquots were incubated with neither BFA nor activator.
Cell preparation was done at room temperature (RT) and all incubation steps were performed in the dark.
For staining, 150 μL of sample (activated or resting blood control) was added to a cocktail of monoclonal antibodies in a staining tube.
After incubation, 3 mL of FACS® Lysing Solution was added and the tube incubated for 10 min at RT. The lysed cells were centrifuged for 5 min at 500×g and subsequently washed with 3 mL buffer (DPBS 1×, 0.5% fetal calf serum). The cell pellet was resuspended in 250 μL buffer and immediately acquired on a flow cytometer. If data acquisition was delayed, the cells were maintained at 4° C. for up to one hour.
The samples as described above were acquired on a FACSCalibur™ dual laser flow cytometer (BDIS, San Jose, Calif.). […]

CD11c^+ DCs = test: Cytokine kinetic assay in LPS activated CD11c+ DCs; conditions: 1 μg/ml LPS, time course 0 to 8 hours
Protocol: The time course of LPS incubation was 0 to 8 hours. Intracellular cytokine and CD80 expression is measured as PE mean fluorescence intensity (MFI).
Whole blood was stimulated with 1 μg/ml LPS and incubated in polypropylene tubes (12×75 mm) at 37° C. in a humidified atmosphere containing 5% CO2. Aliquots were processed, essentially as set forth in Examples 1 and 2 above, every hour from 0 to 8 hrs post stimulation. One hour prior to each sample harvest, BFA was added at 10 μg/mL.

monocytes = conditions: activated whole blood with BFA
Protocol: The cytokine expression of monocytes was evaluated in some of the same samples. Monocytes were identified based on their scatter characteristics, their bright lin 1 FITC, anti-HLA-DR PerCP and CD11c APC staining. […] Intracellular protein secretion is evaluated as PE mean fluorescence intensity (MFI).

## Lipopolysaccharide [LPS]
CD11c^−CD123^+ DCs
  production of any of the tested cytokines: absence of detectable cytokine production; also recorded: fail to respond
CD11c^+CD123^low DCs
  IL-12 expression (intracellular, MFI): trace levels
CD11c^− DCs
  CD80 change in surface expression (ratio of MFI activated versus control): upregulation; also recorded: strongest signal
  CD86 change in surface expression (ratio of MFI activated versus control): upregulation
CD11c^+ DCs
  order of cytokine production (kinetics of the response): TNFα is produced first, followed by IL-1β and IL-6
  time of activation after which CD80 is intensely upregulated: about 4 hours
monocytes
  cytokine expression of monocytes compared with CD11c+ DCs (PE MFI): higher levels; also recorded: much more potently

From patent US7351546B2, “Flow cytometric, whole blood dendritic cell immune function assay” (Becton, Dickinson and Company, priority 1998, dated 2008)
